What was measured:
[1] = osmotic coefficient (dimensionless); mn = molality of the nth substance listed, in mol/kg; conditions: Liquid, vapor pressure osmometery method
[2] = refractive index (Na D-line) (dimensionless); mn = molality of the nth substance listed, in mol/kg; conditions: 101 kPa, Liquid

CCCCn1cc[n+](C)c1.[Cl-] [1-butyl-3-methylimidazolium chloride] + O
Conditions	osmotic coefficient, 298.15 K	osmotic coefficient, 308.15 K	osmotic coefficient, 318.15 K	osmotic coefficient, 328.15 K	refractive index, 298.15 K	refractive index, 308.15 K	refractive index, 318.15 K	refractive index, 328.15 K
[1], m1 = 0.0105	1	0.948	0.958	0.978	–	–	–	–
[1], m1 = 0.023	0.958	0.929	0.932	0.939	–	–	–	–
[1], m1 = 0.0289	0.932	0.924	0.935	0.938	–	–	–	–
[1], m1 = 0.0398	0.892	0.911	0.916	0.921	–	–	–	–
[1], m1 = 0.0621	0.855	0.866	0.881	0.906	–	–	–	–
[1], m1 = 0.0803	0.833	0.861	0.869	0.873	–	–	–	–
[1], m1 = 0.0986	0.827	0.864	0.865	0.867	–	–	–	–
[1], m1 = 0.1413	0.814	0.844	0.857	0.862	–	–	–	–
[1], m1 = 0.1816	0.789	0.817	0.823	0.832	–	–	–	–
[1], m1 = 0.2223	0.779	0.794	0.807	0.822	–	–	–	–
[1], m1 = 0.2764	0.772	0.79	0.797	0.81	–	–	–	–
[1], m1 = 0.3386	0.768	0.779	0.798	0.803	–	–	–	–
[1], m1 = 0.371	0.764	0.775	0.784	0.79	–	–	–	–
[1], m1 = 0.4863	0.735	0.747	0.762	0.775	–	–	–	–
[1], m1 = 0.599	0.718	0.738	0.75	0.759	–	–	–	–
[1], m1 = 0.7152	0.716	0.731	0.748	0.755	–	–	–	–
[1], m1 = 0.9754	0.699	0.709	0.723	0.733	–	–	–	–
[1], m1 = 1.492	0.686	0.692	0.713	0.719	–	–	–	–
[1], m1 = 2	0.686	0.694	0.706	0.721	–	–	–	–
[1], m1 = 2.962	0.711	0.721	0.729	0.744	–	–	–	–
[2], m1 = 0.0105	–	–	–	–	1.333	1.3317	1.3292	1.3273
[2], m1 = 0.023	–	–	–	–	1.3334	1.332	1.3295	1.3275
[2], m1 = 0.0289	–	–	–	–	1.3335	1.3323	1.3296	1.3277
[2], m1 = 0.0398	–	–	–	–	1.334	1.3326	1.33	1.328
[2], m1 = 0.0621	–	–	–	–	1.3343	1.333	1.3305	1.3288
[2], m1 = 0.0803	–	–	–	–	1.3349	1.3336	1.331	1.329
[2], m1 = 0.0986	–	–	–	–	1.3354	1.3341	1.3312	1.3297
[2], m1 = 0.1413	–	–	–	–	1.3366	1.3351	1.3325	1.3309
[2], m1 = 0.1816	–	–	–	–	1.3377	1.3363	1.3338	1.3319
[2], m1 = 0.2223	–	–	–	–	1.3388	1.3373	1.3346	1.3331
[2], m1 = 0.2764	–	–	–	–	1.3404	1.3389	1.3362	1.3343
[2], m1 = 0.3386	–	–	–	–	1.3419	1.3403	1.3377	1.3358
[2], m1 = 0.371	–	–	–	–	1.3428	1.3416	1.3387	1.3369
[2], m1 = 0.4863	–	–	–	–	1.3457	1.3441	1.3415	1.3398
[2], m1 = 0.599	–	–	–	–	1.3484	1.3469	1.3442	1.3422
[2], m1 = 0.7152	–	–	–	–	1.3512	1.3497	1.3467	1.3449
[2], m1 = 0.9754	–	–	–	–	1.3571	1.3562	1.3528	1.3508
[2], m1 = 1.492	–	–	–	–	1.3679	1.3661	1.3631	1.3611
[2], m1 = 2	–	–	–	–	1.3774	1.3754	1.3723	1.3703
[2], m1 = 2.962	–	–	–	–	1.3923	1.3904	1.3872	1.3849

Reference: the NIST ThermoML archive (doi:10.1021/je800609u)
